Assay results reported in US20040092583A1, “Treatment for inhibiting neoplastic lesions” (priority 2001, published 2004).
Converted amounts (≈) assume the structure as drawn.

What was measured:
Type in all cases: cell-based
HT29 colon carcinoma = assay: clonogenic assay (two-layered soft agar), HT29; conditions: Homo sapiens, HT-29, continuous exposure 5-6 days, read-out: IC50 (inhibition of colony formation by 50%)
Procedure: (§1) In vitro cytotoxic activity of extracts containing high concentrations of incensole, furanogermacren and incensole/furanogermacren mixture were determined in several cultured tumour cell lines by performing the […] clonogenic assay. This assay assesses the inhibition of colony formation of tumour stem cells growing in soft agar by cytotoxic agents. Since tumour stem cells are responsible for the proliferate potential and aggressiveness of a tumour cell population, the clonogenic assay is highly predictive of in vivo response.
(§2) The extracts were dissolved in DMSO/water 1:1, prepared as a 30 mg/ml solution and stored at −20° C. until use. […]
(§3) Human tumour cell lines were grown in RPMI 1640 supplemented with 10% fetal calf serum and 2 mM L-glutamine. […] For treatment experiments, exponentially growing cells were trypsinized, washed twice with PBS and the percentage of viable cells was determined by hemocytometer count using trypan blue viable dye exclusion.
(§4) The clonogenic assay was performed according to a modified two-layered soft agar assay. […] Cultures were incubated at 5% CO2 and 37° C. in a humidifled atmosphere for 5-6 days under continuous exposure to drugs and monitored closely for colony growth using an inverted microscope. […]
(§5) If an ID50 or IC70 value could not be determined within the examined dose range, the lowest or highest concentration studies was used for the calculation. […]

[1] = tested on: PC3 Human Prostate Carcinoma; assay: clonogenic assay (two-layered soft agar), PC3; conditions: continuous exposure 5-6 days, read-out: IC50 (inhibition of colony formation by 50%)
Procedure: as §1, §2, §3, §4, §5

[2] = tested on: Staphylococcus aureus NCTC 10442; assay: MIC, macrodilution broth procedure; conditions: NCTC10442
Procedure: These studies were performed to determine the minimum inhibitory concentration (MIC) of incensole/furanogermacren mixture. MIC values were determined using a macrodiluton broth procedure based on NCCLS Documents M7-A3 “Methods for dilution anti-microbial susceptibility tests for bacteria that grow aerobically-third edition, approved standard (1993). […] The following organisms were tested: [table]

[3] = tested on: Enterococcus feacalis NCTC 775; assay: MIC, macrodilution broth procedure; conditions: NCTC775
Procedure: (§6) These studies were performed to determine the minimum inhibitory concentration (MIC) of incensole/furanogermacren mixture.
(§7) MIC values were determined using a macrodiluton broth procedure based on NCCLS Documents M7-A3 “Methods for dilution anti-microbial susceptibility tests for bacteria that grow aerobically-third edition, approved standard (1993).

[4] = tested on: Staphylococcus aureus NCTC 6571; assay: MIC, macrodilution broth procedure; conditions: NCTC6571
Procedure: as §6, §7

- IC50 (HT29 colon carcinoma): 70 µg/mL (≈ 228 µM)
- IC50 [1]: 6 µg/mL (≈ 19.6 µM)
- MIC [2]: 38 µg/mL (≈ 124 µM)
- MIC [3]: 38 µg/mL (≈ 124 µM)
- MIC [4]: 38 µg/mL (≈ 124 µM)
SMILES: C/C1=C\C[C@]2(C(C)C)CC[C@@](C)(O2)[C@@H](O)CC/C(C)=C/CC1 [Incensole, incensole]
